Laboratory results taken from PubChem BioAssay AID463199 (Broad Institute, 2010).
Activity calls are given as the source filed them.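 Rule for the calls: active = AC50, the dose giving half-maximal effect, exceeds a fixed cutoff for a compound that rescues yeast growth under heat; inactive = the rest, inconclusive results apart.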

system: S. cerevisiae Burl-1 ts mutant growth, BacTiter-Glo, 38.5C 24 h; assay: growth induction of Burl-1 ts yeast mutant, dose response, counter-screen for SUMOylation pathway inhibitor project, whole organism, S. cerevisiae, luminescence (AID 463199)

| Compound | AC50 |
| --- | --- |
| COc1ccccc1CNC(=O)C1CCC(CNS(=O)(=O)c2ccc(C)cc2)CC1 (stereo unspecified) | > 42 µM (inactive) |
| O=c1cc(COc2ncnc3ccccc23)nc2sccn12 | > 42 µM (inactive) |
| O=C1CC(c2c[nH]c3ccccc23)C(=O)N1c1ccccc1 (stereo unspecified) | > 42 µM (inactive) |
| COc1ccc(Cc2nnc(NCCO)[nH]c2=O)cc1 | > 42 µM (inactive) |
| CC(C)NC(=O)NC(=O)COC(=O)CCCSc1nc2ccccc2s1 | > 42 µM (inactive) |
| COc1ccc(NC2=C(C)C(=O)CC2)cc1 | > 42 µM (inactive) |
| Cc1ccc(C(C(=O)Nc2ccc3c(c2)OCO3)N(C)C(=O)Cc2c[nH]c3ccccc23)cc1 (stereo unspecified) | > 42 µM (inactive) |
| COc1ccccc1NC(=O)c1nn(C)cc1Br | > 42 µM (inactive) |
| COc1ccc(S(=O)(=O)N2CCCC2CNC(=O)C(=O)NCc2ccccn2)cc1 (stereo unspecified) | > 42 µM (inactive) |
| CSc1ccc(CN2CCN(S(=O)(=O)Cc3ccccc3)CC2)cc1 | > 42 µM (inactive) |
| Oc1c(Br)cc(Br)cc1C=Nc1cccnc1 | > 42 µM (inactive) |
| CS(=O)(=O)N(CC(=O)N1CCN(c2ccccc2F)CC1)C1CCCCC1 | > 42 µM (inactive) |
| COc1cccc(CN2CCN(C(=O)c3cccc4ccccc34)CC2)c1OC | > 42 µM (inactive) |
| CCOc1ccccc1CN1CCN(Cc2ccon2)CC1CCO (stereo unspecified) | > 42 µM (inactive) |
| O=c1c2ccccc2c2ccccc2c(=O)n1-c1ccccc1 | > 42 µM (inactive) |
| COc1ccc(C2C3=C(CC(C)(C)CC3=O)Nc3n[nH]c(C)c32)cc1 (stereo unspecified) | > 42 µM (inactive) |
| COc1ccc(N2C(=O)CC(NCc3cccs3)C2=O)cc1 (stereo unspecified) | > 42 µM (inactive) |
| CC(C)C1OC2(C)OC(=N)C1(C#N)C(C#N)(C#N)C2c1ccccc1 (stereo unspecified) | > 42 µM (inactive) |
| Cc1nc(SCC(=O)O)n[nH]1 | > 42 µM (inactive) |
| Cc1cc(C)nc(SCC2COc3ccccc3O2)n1 (stereo unspecified) | > 42 µM (inactive) |
| O=C(N/N=C/c1ccc(Cl)s1)c1ccccc1[N+](=O)[O-] | > 42 µM (inactive) |
| COCCn1c(SCC(=O)Nc2nc3ccccc3s2)nnc1-c1ccoc1C | > 42 µM (inactive) |
| CCN(CC)c1nc(Nc2ccc(Cl)cc2)nc(OCC#N)n1 | > 42 µM (inactive) |
| Cc1nc(C)n(CC(=O)N2CCCC(C(=O)c3cccc4ccccc34)C2)n1 (stereo unspecified) | > 42 µM (inactive) |
| O=C(CSc1ccc(Br)cc1)Nc1ccccc1N1CCOCC1 | > 42 µM (inactive) |
| CCOC(=O)C1=C(N)c2ccccc2CC1C1CCCC1 (stereo unspecified) | > 42 µM (inactive) |

| Compound | AC50 |
| --- | --- |
| COc1cccc(NC(=S)NC(=O)c2cncc(Br)c2)c1 | > 42 µM (inactive) |
| CC(=O)Nc1cccc2c1C(=O)N(c1ccccc1C)C2=O | > 42 µM (inactive) |
| O=C(NNS(=O)(=O)c1c(F)cc(F)c(Cl)c1F)C12CC3CC(CC(C3)C1)C2 | > 42 µM (inactive) |
| C/C(=C\C(=O)N1CCc2ccccc21)C(=O)O | > 42 µM (inactive) |
| CCn1cc(CCCC(=O)NCc2ccccc2OC)c2ccccc21 | > 42 µM (inactive) |
| Clc1ccc(N=c2ssnc2Cl)nc1 | > 42 µM (inactive) |
| COc1ccc(OC)c2c(N)c(C#N)c(C(F)(F)C(F)(F)F)nc12 | > 42 µM (inactive) |
| CC(C)CCn1c(C(C)O)nc2ccccc21 (stereo unspecified) | > 42 µM (inactive) |
| CCNCc1nc2cc(Cl)ccc2c(=O)[nH]1 | > 42 µM (inactive) |
| Cc1ccccc1C(=O)NNC(=S)Nc1cccc(C(F)(F)F)c1 | > 42 µM (inactive) |
| COc1ccc(C2C(C(C)=O)=C(O)C(=O)N2CCO)c(OC)c1 (stereo unspecified) | > 42 µM (inactive) |
| CCc1cc2c(=O)c(-c3ccc(F)cc3)c(C(F)(F)F)oc2cc1OCC(=O)O | > 42 µM (inactive) |
| Cc1nc(-c2cccc(S(=O)(=O)N3CCOCC3)c2)cs1 | > 42 µM (inactive) |
| Cn1c(-c2ccc3c(c2)OCO3)cnc1NC(=O)CCC(=O)NCCc1ccccc1 | > 42 µM (inactive) |
| O=C(CCSc1nnc(-c2ccncc2)o1)Nc1ccc(Cl)cc1 | > 42 µM (inactive) |
| CCS(=O)c1ccccc1C(=O)O (stereo unspecified) | > 42 µM (inactive) |
| Cc1ccc(S(=O)(=O)Oc2ccccc2N2C(=O)C3CC=CCC3C2=O)cc1 (stereo unspecified) | > 42 µM (inactive) |
| Nc1ccc(Oc2ccccc2-c2ccccc2)cc1 | > 42 µM (inactive) |
| CCOc1ccc2nc(C(C)O)[nH]c2c1 (stereo unspecified) | > 42 µM (inactive) |
| O=C(Nc1ccc(Cl)cc1Cl)c1cccc(N2C(=O)C=CC2=O)c1 | > 42 µM (inactive) |
| O=C(NCC(=O)N(c1ccccc1)C(C(=O)NCC1CCCO1)c1ccccc1)c1cccs1 (stereo unspecified) | > 42 µM (inactive) |
| CCOc1ccc(C)cc1S(=O)(=O)n1nc(C)cc1C | > 42 µM (inactive) |
| COc1cccc(/C=N/NC(=O)CNC(=O)c2ccco2)c1O | > 42 µM (inactive) |
| CCOc1cc(/C=N/NC(=O)C(=O)N/N=C/c2ccc(O)c(OCC)c2)ccc1O | > 42 µM (inactive) |
| CCC(C)(C(=O)NC1CCCC1)N(C(=O)c1ccccn1)c1ccc(C)cc1 (stereo unspecified) | > 42 µM (inactive) |
